Reference: patent US20110034335A1, “Treatment of Ornamental Plants” (priority 2009, published 2011)

Key:
Assay type in all cases: in vivo
Petunia = assay: Spray with 1-MCP solutions with or without Silwet L-77, ethylene challenge (Example 6)
Method: (§1) Spray applications were made using (unless otherwise noted) AFxRD-038 powder containing 3.8% active ingredient, i.e. 1-MCP, and also containing dextrose, alpha-cyclodextrin, and amino acid salt. Rates listed are for active ingredient e.g. 5 mg active ingredient per liter. Sprayed liquid contained (unless otherwise noted) AFxRD-038 powder added to water. AFxRD-038 powder was obtained from AgroFresh Inc. The water used (unless otherwise noted) was tap water. Applications were done in 500 ml spray bottles at rates typical for growth regulators applications in the ornamental industry i.e., 200 ml per square meter. Spraying was done within 5-15 minutes of mixing the formulation. Plants were allowed to dry for 1-4 hours before being challenged with ethylene (2 ppm for about 16 hours at ambient temperatures).
(§2) Surfactant Silwet™ L-77 (called “surf” below) was sometimes included to evaluate the effect of surfactant on efficacy. Silwet™ L-77 was used in the form of a pure liquid. The amounts shown below as “ml/L” refer to milliliters of pure Silwet™ L-77 per liter of liquid CP composition.
Bud wilting (%) of Petunia (in six-pack trays) sprayed with 1-MCP solutions with or without Silwet™ L-77 surfactant and challenged with ethylene.

[1] = test system: racks of flowering plants; assay: Racks of flowering plants, overall comparison sprayed vs control (Example 8); settings: 25 mg/L; every variety
Method: as §1
Racks of flowers were sprayed with spray liquid containing 25 mg/L at rate of 200 ml/square meter. Racks were then placed into a full enclosed truck (length 7.3 meter) for 14 hours. Plants were then challenged with ethylene and evaluated 3 and 7 days later, using a rating scale from 0 (poor) to 2 (good). […] Results were as follows:
In no case was the sprayed plant worse to a statistically significant degree than the corresponding control plant. In most cases the sprayed plant was better than the corresponding control plant.

‘Magenta’ Impatiens = assay: Spray with 1-MCP solutions with Silwet L-77, ethylene challenge (Example 5); settings: for Wilt and/or Abscission (%): surf. 0.25 ml/L
Method: as §1, §2

Regal Geranium ‘Camelot’ = assay: Spray with 1-MCP solutions with or without surfactant, ethylene challenge (Example 4)
Method: as §1, §2
Flower loss (%) on Regal Geranium cultivars, ‘Camelot’ and ‘Jewel’ (in pots), sprayed with 1-MCP solutions with or without surfactant (Silwet™ L-77) and challenged with ethylene.

nursery plants = assay: Nursery plants, reassessment after 4 weeks in greenhouse (Example 10); settings: 50 mg/L of 1-MCP; after 4 weeks in a greenhouse
Method: A range of nursery plants that often show quality problems during shipping were chosen including Datura (tropical), Mini-rose, Delphinium (sun perennial), Verbena (sun perennial), Asclepias (sun perennial), Delosperma (groundcover), Myosotis (shade perennial) and Primula (shade perennial).
Spray liquid had 50 mg/L of 1-MCP. Sprayed and unsprayed control plants, all of which were blooming, were packed in boxes according to standard procedures and shipped under commercial conditions. After 5 days plants were unpacked and given a quality rating, from 0 (poor) to 2 (good). Results were as follows:
After the above observations, the plants were placed in a greenhouse for 4 weeks and assessed again.

‘Candy Stripe’ phlox = assay: Spray with 1-MCP solutions with or without Silwet L-77, ethylene challenge (Example 2); settings: for Bud or Flower Abscission (%): Day 5
Method: as §1, §2
(§3) Kalanchoe (unknown cultivar), ‘Candy Stripe’ phlox and ‘Sonnet’ snapdragon (all in pots of diameter 10 cm (4 inch)) were sprayed with 1-MCP solutions, with or without Silwet™ L-77 surfactant (specific gravity 1.007), and challenged with ethylene.
(§4) For Kanlanchoe, we observed the percent of plants on which one or more flowers died by wilting, whether or not it stayed on the plant. For Phlox and Snapdragon, we observed the percent of plants on which one or more flowers or one or more buds underwent abscission.

‘Sonnet’ snapdragon = assay: as above; settings: for Bud or Flower Abscission (%): Day 5
Method: as §1, §2, §3, §4

Kalanchoe = assay: as above
Method: as §1, §2, §3, §4

[2] = 1-MCP 5 mg/L, surf 0 ml/L, Day 5
[3] = 1-MCP 5 mg/L, surf 0.25 ml/L, Day 5
[4] = 1-MCP 10 mg/L, surf 0 ml/L, Day 5
[5] = 1-MCP 10 mg/L, surf 0.25 ml/L, Day 5

## CC1=CC1 [1-MCP, 1-methylcyclopropene]
Petunia; 1-MCP 1 mg/L, surf 0 ml/L, Day 5
  Bud Wilting (%): 89%
Petunia; 1-MCP 1 mg/L, surf 0 ml/L, Day 9
  Bud Wilting (%): 93%
Petunia; 1-MCP 1 mg/L, surf 0.25 ml/L, Day 5
  Bud Wilting (%): 76%
Petunia; 1-MCP 1 mg/L, surf 0.25 ml/L, Day 9
  Bud Wilting (%): 93%
Petunia; 1-MCP 2.5 mg/L, surf 0 ml/L, Day 5
  Bud Wilting (%): 74%
Petunia; 1-MCP 2.5 mg/L, surf 0 ml/L, Day 9
  Bud Wilting (%): 91%
Petunia; 1-MCP 2.5 mg/L, surf 0.25 ml/L, Day 5
  Bud Wilting (%): 68%
Petunia; 1-MCP 2.5 mg/L, surf 0.25 ml/L, Day 9
  Bud Wilting (%): 85%
Petunia; [2]
  Bud Wilting (%): 63%
Petunia; 1-MCP 5 mg/L, surf 0 ml/L, Day 9
  Bud Wilting (%): 71%
Petunia; [3]
  Bud Wilting (%): 57%
Petunia; 1-MCP 5 mg/L, surf 0.25 ml/L, Day 9
  Bud Wilting (%): 67%
Petunia; [4]
  Bud Wilting (%): 34%
Petunia; 1-MCP 10 mg/L, surf 0 ml/L, Day 9
  Bud Wilting (%): 52%
Petunia; [5]
  Bud Wilting (%): 37%
Petunia; 1-MCP 10 mg/L, surf 0.25 ml/L, Day 9
  Bud Wilting (%): 50%
[1]
  sprayed plant compared with control plant: better than the control plant at day 3 or at day 7 or at both
‘Magenta’ Impatiens; 1-MCP 5 mg/L
  Wilt and/or Abscission (%): 3%
‘Magenta’ Impatiens; 1-MCP 10 mg/L
  Wilt and/or Abscission (%): 2%
‘Magenta’ Impatiens; 1-MCP 25 mg/L
  Wilt and/or Abscission (%): 5%
‘Magenta’ Impatiens; 1-MCP 50 mg/L
  Wilt and/or Abscission (%): 0%
‘Magenta’ Impatiens; even at the highest rates with Silwet L-77
  phytotoxicity: No phytotoxicity was observed
Regal Geranium ‘Camelot’; 1-MCP 5 mg/L, surf. 0 ml/L, Day 1 (Day 1/Day 2 column pair)
  Flower Loss (%): 45 ^ %
Regal Geranium ‘Camelot’; 1-MCP 5 mg/L, surf. 0 ml/L, Day 1 (Day 1/Day 7 column pair)
  Flower Loss (%): 62%
Regal Geranium ‘Camelot’; 1-MCP 5 mg/L, surf. 0 ml/L, Day 2
  Flower Loss (%): 64^ %
Regal Geranium ‘Camelot’; 1-MCP 5 mg/L, surf. 0 ml/L, Day 7
  Flower Loss (%): 46%
Regal Geranium ‘Camelot’; 1-MCP 5 mg/L, surf. 2 ml/L, Day 1, phytotoxicity was observed
  Flower Loss (%): 5^(3) %
Regal Geranium ‘Camelot’; 1-MCP 5 mg/L, surf. 2 ml/L, Day 2, phytotoxicity was observed
  Flower Loss (%): 24^(3) %
Regal Geranium ‘Camelot’; 1-MCP 10 mg/L, surf. 0 ml/L, Day 1
  Flower Loss (%): 20%
Regal Geranium ‘Camelot’; 1-MCP 10 mg/L, surf. 0 ml/L, Day 7
  Flower Loss (%): 0%
Regal Geranium ‘Camelot’; 1-MCP 25 mg/L, surf. 0 ml/L, Day 1
  Flower Loss (%): 28%
Regal Geranium ‘Camelot’; 1-MCP 25 mg/L, surf. 0 ml/L, Day 7
  Flower Loss (%): 27%
Regal Geranium ‘Camelot’; 1-MCP 50 mg/L, surf. 0 ml/L, Day 1 (Day 1/Day 2 column pair), phytotoxicity was observed
  Flower Loss (%): 0^(3) %
Regal Geranium ‘Camelot’; 1-MCP 50 mg/L, surf. 0 ml/L, Day 1 (Day 1/Day 7 column pair), phytotoxicity was observed
  Flower Loss (%): 0^(3) %
Regal Geranium ‘Camelot’; 1-MCP 50 mg/L, surf. 0 ml/L, Day 2, phytotoxicity was observed
  Flower Loss (%): 0^(3) %
Regal Geranium ‘Camelot’; 1-MCP 50 mg/L, surf. 0 ml/L, Day 7, phytotoxicity was observed
  Flower Loss (%): 48^(3) %
Regal Geranium ‘Camelot’; 1-MCP 50 mg/L, surf. 2 ml/L, Day 1, phytotoxicity was observed
  Flower Loss (%): 5^(3) %
Regal Geranium ‘Camelot’; 1-MCP 50 mg/L, surf. 2 ml/L, Day 2, phytotoxicity was observed
  Flower Loss (%): 44^(3) %
Nursery plants
  assessment of sprayed plants vs control: typically larger, greener, and healthier
‘Candy Stripe’ phlox; 1-MCP 5 mg/L
  protection against ethylene: sufficient in giving protection against ethylene
‘Candy Stripe’ phlox; 1-MCP 5 mg/L, surf 0 ml/L
  Bud or Flower Abscission (%): 21.4%
‘Candy Stripe’ phlox; 1-MCP 5 mg/L, surf 0.25 ml/L
  Bud or Flower Abscission (%): 26.0%
‘Candy Stripe’ phlox; 1-MCP 10 mg/L, surf 0 ml/L
  Bud or Flower Abscission (%): 17.3%
‘Candy Stripe’ phlox; 1-MCP 10 mg/L, surf 0.25 ml/L
  Bud or Flower Abscission (%): 22.8%
‘Candy Stripe’ phlox; 1-MCP 25 mg/L, surf 0 ml/L
  Bud or Flower Abscission (%): 15.8%
‘Candy Stripe’ phlox; 1-MCP 25 mg/L, surf 0.25 ml/L
  Bud or Flower Abscission (%): 21.2%
‘Candy Stripe’ phlox; 1-MCP 50 mg/L, surf 0 ml/L
  Bud or Flower Abscission (%): 44.1%
‘Candy Stripe’ phlox; 1-MCP 50 mg/L, surf 0.25 ml/L
  Bud or Flower Abscission (%): 40.0%
‘Candy Stripe’ phlox; the highest rates of 1-MCP
  phytotoxicity to the open florets: caused phytotoxicity to the open florets
‘Sonnet’ snapdragon; 1-MCP 5 mg/L
  protection against ethylene: sufficient in giving protection against ethylene
‘Sonnet’ snapdragon; 1-MCP 5 mg/L, surf 0 ml/L
  Bud or Flower Abscission (%): 19.9%
‘Sonnet’ snapdragon; 1-MCP 5 mg/L, surf 0.25 ml/L
  Bud or Flower Abscission (%): 0.0%
‘Sonnet’ snapdragon; 1-MCP 10 mg/L, surf 0 ml/L
  Bud or Flower Abscission (%): 4.4%
‘Sonnet’ snapdragon; 1-MCP 10 mg/L, surf 0.25 ml/L
  Bud or Flower Abscission (%): 3.3%
‘Sonnet’ snapdragon; 1-MCP 25 mg/L, surf 0 ml/L
  Bud or Flower Abscission (%): 7.4%
‘Sonnet’ snapdragon; 1-MCP 25 mg/L, surf 0.25 ml/L
  Bud or Flower Abscission (%): 3.3%
‘Sonnet’ snapdragon; 1-MCP 50 mg/L
  phytotoxicity on flowers: did not result in any phytotoxicity
‘Sonnet’ snapdragon; 1-MCP 50 mg/L, surf 0 ml/L
  Bud or Flower Abscission (%): 6.4%
‘Sonnet’ snapdragon; 1-MCP 50 mg/L, surf 0.25 ml/L
  Bud or Flower Abscission (%): 8.9%
‘Sonnet’ snapdragon; the highest rates of 1-MCP
  phytotoxicity to the open florets: caused phytotoxicity to the open florets
Kalanchoe; 1-MCP 5 mg/L
  protection against ethylene: sufficient in giving protection against ethylene
Kalanchoe; [2]
  Flower Wilting (%): 7.9%
Kalanchoe; 1-MCP 5 mg/L, surf 0 ml/L, Day 15
  Flower Wilting (%): 11.9%
Kalanchoe; [3]
  Flower Wilting (%): 7.3%
Kalanchoe; 1-MCP 5 mg/L, surf 0.25 ml/L, Day 15
  Flower Wilting (%): 8.7%
Kalanchoe; [4]
  Flower Wilting (%): 5.6%
Kalanchoe; 1-MCP 10 mg/L, surf 0 ml/L, Day 15
  Flower Wilting (%): 6.7%
Kalanchoe; [5]
  Flower Wilting (%): 5.5%
Kalanchoe; 1-MCP 10 mg/L, surf 0.25 ml/L, Day 15
  Flower Wilting (%): 6.8%
Kalanchoe; 1-MCP 25 mg/L, surf 0 ml/L, Day 5
  Flower Wilting (%): 4.6%
Kalanchoe; 1-MCP 25 mg/L, surf 0 ml/L, Day 15
  Flower Wilting (%): 7.2%
Kalanchoe; 1-MCP 25 mg/L, surf 0.25 ml/L, Day 5
  Flower Wilting (%): 6.2%
Kalanchoe; 1-MCP 25 mg/L, surf 0.25 ml/L, Day 15
  Flower Wilting (%): 7.4%
Kalanchoe; 1-MCP 50 mg/L
  phytotoxicity: did not result in any phytotoxicity
Kalanchoe; 1-MCP 50 mg/L, surf 0 ml/L, Day 5
  Flower Wilting (%): 6.7%
Kalanchoe; 1-MCP 50 mg/L, surf 0 ml/L, Day 15
  Flower Wilting (%): 7.5%
Kalanchoe; 1-MCP 50 mg/L, surf 0.25 ml/L, Day 5
  Flower Wilting (%): 5.7%
Kalanchoe; 1-MCP 50 mg/L, surf 0.25 ml/L, Day 15
  Flower Wilting (%): 6.7%
